SMILES strings stand for the structures. Bounds are passed on as bounds.

Experimental findings from BindingDB's records for doi:10.1016/j.bmcl.2008.07.062 (The Scripps Research Institute, 2008) are described below.

Experiment [1] is described as follows: Inhibition of Blk expressed in mouse BAF3 cells assessed as cytotoxicity.
The nature of experiment [2]: Inhibition of JAK3 expressed in mouse BAF3 cells assessed as cytotoxicity.

One may read the IC50 as the midpoint of a concentration-inhibition curve. Turning to `C=CC(=O)Nc1ccc2ncnc(Nc3cccc(Br)c3)c2c1`, the IC50 in experiment [1] and in experiment [2] was greater than 10 µM throughout.
